Key:
[1] = Ability to inhibit LPS-stimulated TNF production in THP-1 cells at 3 uM concentration; assay type: functional; conditions: Homo sapiens
[2] = target: Disintegrin and metalloproteinase domain-containing protein 17 (Homo sapiens, UniProt P78536); assay: Inhibitory activity against Tumor necrosis factor alpha converting enzyme
Collagenase 3 = Collagenase 3 (Homo sapiens, UniProt P45452); assay: In vitro inhibitory activity against matrix metalloprotease-13
Interstitial collagenase = target: T1, Interstitial collagenase (Homo sapiens, UniProt P03956); assay: In vitro inhibitory activity against matrix metalloprotease-1
T1 sequence (P03956 whole entry): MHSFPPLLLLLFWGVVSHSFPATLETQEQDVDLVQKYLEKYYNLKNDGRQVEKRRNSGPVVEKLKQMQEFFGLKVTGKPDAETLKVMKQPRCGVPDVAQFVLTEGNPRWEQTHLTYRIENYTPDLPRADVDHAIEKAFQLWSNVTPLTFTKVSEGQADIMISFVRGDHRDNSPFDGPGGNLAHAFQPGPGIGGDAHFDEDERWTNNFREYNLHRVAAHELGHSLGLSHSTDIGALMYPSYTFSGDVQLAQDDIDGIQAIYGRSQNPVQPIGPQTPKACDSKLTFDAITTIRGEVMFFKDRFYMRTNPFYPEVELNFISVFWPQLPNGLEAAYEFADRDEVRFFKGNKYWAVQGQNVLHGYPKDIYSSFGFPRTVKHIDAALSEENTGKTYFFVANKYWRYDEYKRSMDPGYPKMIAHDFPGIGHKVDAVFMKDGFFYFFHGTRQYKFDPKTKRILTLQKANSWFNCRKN

[3] = target: T2, Interstitial collagenase (Homo sapiens) (UniProt P03956); assay: In vitro inhibitory activity against matrix metallo proteinase-1 at 1 uM concentration
T2 sequence (whole entry): T1 sequence (P03956 whole entry)

Sequence of Disintegrin and metalloproteinase domain-containing protein 17 (P78536 whole entry, the tested form may be a part): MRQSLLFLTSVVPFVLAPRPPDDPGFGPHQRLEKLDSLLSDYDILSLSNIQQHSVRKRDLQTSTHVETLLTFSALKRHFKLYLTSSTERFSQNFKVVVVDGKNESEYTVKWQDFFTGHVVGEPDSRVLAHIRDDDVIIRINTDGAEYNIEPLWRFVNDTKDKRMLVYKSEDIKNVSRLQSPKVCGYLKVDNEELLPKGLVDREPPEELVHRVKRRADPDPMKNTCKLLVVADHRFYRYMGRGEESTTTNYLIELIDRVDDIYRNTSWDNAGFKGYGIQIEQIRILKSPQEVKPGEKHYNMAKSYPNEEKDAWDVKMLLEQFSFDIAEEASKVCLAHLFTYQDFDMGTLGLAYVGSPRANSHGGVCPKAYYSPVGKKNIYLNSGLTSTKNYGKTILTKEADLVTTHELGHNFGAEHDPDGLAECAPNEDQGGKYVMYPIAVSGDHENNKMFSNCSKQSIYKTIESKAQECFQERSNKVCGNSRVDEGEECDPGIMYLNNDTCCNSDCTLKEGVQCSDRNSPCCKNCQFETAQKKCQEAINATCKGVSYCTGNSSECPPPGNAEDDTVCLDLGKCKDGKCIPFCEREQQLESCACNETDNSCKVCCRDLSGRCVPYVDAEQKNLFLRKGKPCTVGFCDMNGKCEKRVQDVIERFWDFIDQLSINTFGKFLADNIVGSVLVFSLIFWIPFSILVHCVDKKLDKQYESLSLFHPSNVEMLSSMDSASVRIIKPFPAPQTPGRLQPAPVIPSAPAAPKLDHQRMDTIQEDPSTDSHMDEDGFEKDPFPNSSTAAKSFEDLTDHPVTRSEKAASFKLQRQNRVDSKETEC

Row | Structure (SMILES) | inhibition at 3 µM [1] | IC50 [2] | IC50 (Collagenase 3) | IC50 (Interstitial collagenase) | inhibition [3]
1 | CC#CCOc1ccc(S(=O)(=O)N2Cc3ccccc3N(C(=O)c3ccco3)CC2C(=O)NO)cc1 (configuration not stated) | 74% |  |  |  | 
2 | CC#CCOc1ccc(S(=O)(=O)N2Cc3ccc(CN(C)C)cc3N(C(C)=O)CC2C(=O)NO)cc1 (configuration not stated) | 70% | 18 nM | 67 nM | 904 nM | 
3 | CC#CCOc1ccc(S(=O)(=O)N2Cc3cc(N(C)CCc4ccccn4)ccc3N(C(C)=O)CC2C(=O)NO)cc1 (configuration not stated) | 82% | 121 nM | 53 nM |  | 19%
4 | CC#CCOc1ccc(S(=O)(=O)N2Cc3ccc(CN4CCNCC4)cc3N(C(C)=O)CC2C(=O)NO)cc1 (configuration not stated) | 72% | 14 nM | 17 nM | 483 nM | 
5 | CC#CCOc1ccc(S(=O)(=O)N2Cc3ccc(CNC)cc3N(C(C)=O)CC2C(=O)NO)cc1 (configuration not stated) | 81% | 14 nM | 32 nM | 456 nM | 
6 | CC#CCOc1ccc(S(=O)(=O)N2Cc3ccc(C(=O)NC)cc3N(C(C)=O)CC2C(=O)NO)cc1 (configuration not stated) | 64% | 41 nM | 42 nM | 813 nM | 
7 | CC#CCOc1ccc(S(=O)(=O)N2Cc3cc(N4CCN(C)CC4)ccc3N(C(C)=O)CC2C(=O)NO)cc1 (configuration not stated) | 75% | 92 nM | 21 nM | 852 nM | 
8 | CC#CCOc1ccc(S(=O)(=O)N2Cc3ccc(CO)cc3N(C(C)=O)CC2C(=O)NO)cc1 (configuration not stated) | 63% | 12 nM | 20 nM | 500 nM | 
9 | CC#CCOc1ccc(S(=O)(=O)N2Cc3ccc(CNC(C)=O)cc3N(C(C)=O)CC2C(=O)NO)cc1 (configuration not stated) | 46% | 31 nM | 12 nM | 578 nM | 
10 | CC#CCOc1ccc(S(=O)(=O)N2Cc3ccccc3N(C(=O)c3cccnc3)CC2C(=O)NO)cc1 (configuration not stated) | 33% | 89 nM | 19 nM | 238 nM | 
11 | CC#CCOc1ccc(S(=O)(=O)N2Cc3cc(NCCc4ccccn4)ccc3N(C(C)=O)CC2C(=O)NO)cc1 (configuration not stated) | 44% | 49 nM | 47 nM |  | 30%
12 | CC#CCOc1ccc(S(=O)(=O)N2Cc3cc(N(C)C)ccc3N(C(C)=O)CC2C(=O)NO)cc1 (configuration not stated) | 33% | 197 nM | 17 nM | 682 nM | 
13 | CC#CCOc1ccc(S(=O)(=O)N2Cc3ccccc3N(C(=O)COC)CC2C(=O)NO)cc1 (configuration not stated) | 73% | 81 nM | 97 nM | 853 nM | 
14 | CC#CCOc1ccc(S(=O)(=O)N2Cc3ccccc3N(C(C)=O)CC2C(=O)NO)cc1 (configuration not stated) | 60% |  |  |  | 
15 | CC#CCOc1ccc(S(=O)(=O)N2Cc3cc(N4CCOCC4)ccc3N(C(C)=O)CC2C(=O)NO)cc1 (configuration not stated) | 73% | 130 nM | 33 nM | 1260 nM | 
16 | CC#CCOc1ccc(S(=O)(=O)N2Cc3cc(OCCc4ccccc4)ccc3N(C(C)=O)CC2C(=O)NO)cc1 (configuration not stated) | 83% | 36 nM | 28 nM |  | 45%
17 | CC#CCOc1ccc(S(=O)(=O)N2Cc3ccccc3N(C(=O)c3cnccn3)CC2C(=O)NO)cc1 (configuration not stated) | 41% | 69 nM | 20 nM | 356 nM | 
